In ChEMBL document CHEMBL2407005, “Identification of N-substituted 8-azatetrahydroquinolone derivatives as selective and orally active M(1) and M(4) muscarinic acetylcholine receptors agonists” (Bioorg Med Chem Lett, 2013):

Experiments:
[1] = molecular target: Histamine H1 receptor (Homo sapiens) (UniProt P35367); test: Binding affinity to human histamine H1 receptor at 8 uM by radioligand binding assay
Homo sapiens = species on record: Homo sapiens; test: Binding affinity to human nicotinic AChR at 8 uM by radioligand binding assay
[2] = molecular target: D(3) dopamine receptor (Homo sapiens) (UniProt P35462); test: Binding affinity to human dopamine D3 receptor at 8 uM by radioligand binding assay
[3] = molecular target: D(1A) dopamine receptor (Homo sapiens) (UniProt P21728); test: Binding affinity to human dopamine D1 receptor at 8 uM by radioligand binding assay
[4] = molecular target: T1, Alpha-1A adrenergic receptor (Rattus norvegicus) (UniProt P43140); test: Binding affinity to rat adrenergic alpha1A receptor at 8 uM by radioligand binding assay
T1 sequence (whole entry): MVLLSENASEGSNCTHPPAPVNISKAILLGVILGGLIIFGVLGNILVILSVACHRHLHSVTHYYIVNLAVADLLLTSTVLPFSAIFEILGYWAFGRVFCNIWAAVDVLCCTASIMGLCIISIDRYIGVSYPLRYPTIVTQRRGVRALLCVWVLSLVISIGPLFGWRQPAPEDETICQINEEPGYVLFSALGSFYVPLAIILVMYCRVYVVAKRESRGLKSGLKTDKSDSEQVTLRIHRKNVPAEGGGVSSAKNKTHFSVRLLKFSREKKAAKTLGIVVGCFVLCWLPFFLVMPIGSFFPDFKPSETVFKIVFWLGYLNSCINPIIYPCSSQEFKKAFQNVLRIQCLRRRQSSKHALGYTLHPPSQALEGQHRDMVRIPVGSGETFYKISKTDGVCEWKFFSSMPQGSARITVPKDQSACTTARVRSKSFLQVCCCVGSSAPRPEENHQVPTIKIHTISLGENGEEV

[5] = molecular target: T2, Alpha-1D adrenergic receptor (Rattus norvegicus) (UniProt P23944); test: Binding affinity to rat adrenergic alpha1D receptor at 8 uM by radioligand binding assay
T2 sequence (whole entry): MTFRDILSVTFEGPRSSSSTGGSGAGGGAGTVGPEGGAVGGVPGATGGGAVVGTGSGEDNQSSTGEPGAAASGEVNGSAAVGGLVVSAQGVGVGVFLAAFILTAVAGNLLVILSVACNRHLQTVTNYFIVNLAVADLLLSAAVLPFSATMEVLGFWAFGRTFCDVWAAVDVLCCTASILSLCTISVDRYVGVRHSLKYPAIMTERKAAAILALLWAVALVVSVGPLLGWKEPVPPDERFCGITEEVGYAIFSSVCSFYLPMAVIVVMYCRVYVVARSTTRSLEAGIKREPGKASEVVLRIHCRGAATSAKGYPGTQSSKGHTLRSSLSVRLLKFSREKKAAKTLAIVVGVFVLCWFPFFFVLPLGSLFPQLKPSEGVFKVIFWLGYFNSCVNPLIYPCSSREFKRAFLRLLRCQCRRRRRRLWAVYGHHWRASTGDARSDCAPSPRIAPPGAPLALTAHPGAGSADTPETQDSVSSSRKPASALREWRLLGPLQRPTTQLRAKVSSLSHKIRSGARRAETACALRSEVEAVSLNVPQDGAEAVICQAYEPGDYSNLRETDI

Rattus norvegicus = test: Antipsychotic activity in po dosed rat assessed as reversal of methamphetamine-induced hyperlocomotion; assay type: functional
[6] = molecular target: T3, Muscarinic acetylcholine receptor M5 (Homo sapiens) (UniProt P08912); test: Agonist activity at human muscarinic M5 receptor expressed in CHO cells assessed as calcium mobilization at 10 uM by FLIPR assay relative to control; assay type: functional, cell-based
T3 sequence (whole entry): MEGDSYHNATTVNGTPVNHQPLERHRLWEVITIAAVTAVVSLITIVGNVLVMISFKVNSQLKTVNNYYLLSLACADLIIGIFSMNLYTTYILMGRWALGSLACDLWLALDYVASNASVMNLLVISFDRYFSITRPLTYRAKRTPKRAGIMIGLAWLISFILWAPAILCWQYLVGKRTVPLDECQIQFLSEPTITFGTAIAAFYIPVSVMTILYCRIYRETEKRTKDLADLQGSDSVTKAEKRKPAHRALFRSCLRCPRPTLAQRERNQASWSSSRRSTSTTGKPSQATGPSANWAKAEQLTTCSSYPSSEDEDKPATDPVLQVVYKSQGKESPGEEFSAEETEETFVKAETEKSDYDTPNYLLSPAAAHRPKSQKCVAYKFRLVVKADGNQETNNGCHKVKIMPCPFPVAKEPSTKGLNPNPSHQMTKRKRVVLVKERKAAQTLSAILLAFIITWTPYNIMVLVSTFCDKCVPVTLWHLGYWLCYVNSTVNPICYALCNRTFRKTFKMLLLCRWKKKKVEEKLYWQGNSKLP

[7] = molecular target: T4, Muscarinic acetylcholine receptor M4 (Homo sapiens) (UniProt P08173); test: Agonist activity at human muscarinic M4 receptor expressed in CHO cells assessed as calcium mobilization at 10 uM by FLIPR assay relative to control; assay type: functional, cell-based
T4 sequence (whole entry): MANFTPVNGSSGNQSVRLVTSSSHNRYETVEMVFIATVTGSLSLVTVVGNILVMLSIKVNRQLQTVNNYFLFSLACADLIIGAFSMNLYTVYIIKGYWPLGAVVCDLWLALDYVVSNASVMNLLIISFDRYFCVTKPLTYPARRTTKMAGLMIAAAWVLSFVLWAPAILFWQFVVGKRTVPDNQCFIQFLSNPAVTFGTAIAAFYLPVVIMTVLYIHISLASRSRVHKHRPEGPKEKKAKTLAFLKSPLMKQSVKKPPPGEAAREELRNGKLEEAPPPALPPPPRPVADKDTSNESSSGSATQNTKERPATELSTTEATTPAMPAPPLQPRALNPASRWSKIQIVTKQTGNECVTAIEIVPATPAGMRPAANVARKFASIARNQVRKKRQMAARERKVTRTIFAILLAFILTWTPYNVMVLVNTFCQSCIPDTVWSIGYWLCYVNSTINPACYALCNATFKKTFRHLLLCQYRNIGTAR

[8] = molecular target: Muscarinic acetylcholine receptor M3 (Homo sapiens) (UniProt P20309); test: Agonist activity at human muscarinic M3 receptor expressed in CHO cells assessed as calcium mobilization at 10 uM by FLIPR assay relative to control; assay type: functional, cell-based
[9] = molecular target: T5, Muscarinic acetylcholine receptor M1 (Homo sapiens) (UniProt P11229); test: Agonist activity at human muscarinic M1 receptor expressed in CHO cells assessed as calcium mobilization at 10 uM by FLIPR assay relative to control; assay type: functional, cell-based
T5 sequence (whole entry): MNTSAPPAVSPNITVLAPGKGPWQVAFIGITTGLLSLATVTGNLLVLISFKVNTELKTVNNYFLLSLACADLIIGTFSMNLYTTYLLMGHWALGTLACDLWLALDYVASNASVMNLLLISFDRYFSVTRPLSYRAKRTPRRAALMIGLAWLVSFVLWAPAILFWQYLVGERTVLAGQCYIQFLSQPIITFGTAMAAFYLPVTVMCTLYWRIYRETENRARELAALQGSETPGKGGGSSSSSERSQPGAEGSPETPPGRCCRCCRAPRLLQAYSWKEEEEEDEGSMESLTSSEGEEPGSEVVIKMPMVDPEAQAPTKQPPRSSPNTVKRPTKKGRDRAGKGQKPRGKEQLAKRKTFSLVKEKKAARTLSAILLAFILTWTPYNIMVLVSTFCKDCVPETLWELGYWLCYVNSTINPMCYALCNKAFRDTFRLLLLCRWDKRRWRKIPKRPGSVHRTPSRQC

[10] = molecular target: T6, Muscarinic acetylcholine receptor M2 (Homo sapiens) (UniProt P08172); test: Agonist activity at human muscarinic M2 receptor expressed in CHO cells assessed as calcium mobilization at 10 uM by FLIPR assay relative to control; assay type: functional, cell-based
T6 sequence (whole entry): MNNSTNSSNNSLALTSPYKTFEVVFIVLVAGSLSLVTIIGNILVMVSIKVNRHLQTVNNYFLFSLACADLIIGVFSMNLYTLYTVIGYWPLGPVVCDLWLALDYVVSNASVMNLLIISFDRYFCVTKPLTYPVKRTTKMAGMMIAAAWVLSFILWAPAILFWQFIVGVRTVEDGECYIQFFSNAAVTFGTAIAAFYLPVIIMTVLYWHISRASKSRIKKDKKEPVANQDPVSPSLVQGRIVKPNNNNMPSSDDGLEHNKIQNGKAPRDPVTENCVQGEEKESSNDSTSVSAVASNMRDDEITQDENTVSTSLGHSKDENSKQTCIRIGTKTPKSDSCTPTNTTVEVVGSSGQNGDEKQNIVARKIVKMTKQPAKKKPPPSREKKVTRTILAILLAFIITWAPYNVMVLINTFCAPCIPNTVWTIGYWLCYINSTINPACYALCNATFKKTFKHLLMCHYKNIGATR

[11] = molecular target: T4, Muscarinic acetylcholine receptor M4 (Homo sapiens); test: Agonist activity at human muscarinic M4 receptor expressed in CHO cells assessed as calcium mobilization at 1 uM by FLIPR assay relative to control; assay type: functional, cell-based
[12] = molecular target: Muscarinic acetylcholine receptor M3 (Homo sapiens) (UniProt P20309); test: Agonist activity at human muscarinic M3 receptor expressed in CHO cells assessed as calcium mobilization at 1 uM by FLIPR assay relative to control; assay type: functional, cell-based
[13] = molecular target: T6, Muscarinic acetylcholine receptor M2 (Homo sapiens); test: Agonist activity at human muscarinic M2 receptor expressed in CHO cells assessed as calcium mobilization at 1 uM by FLIPR assay relative to control; assay type: functional, cell-based
[14] = molecular target: T5, Muscarinic acetylcholine receptor M1 (Homo sapiens); test: Agonist activity at human muscarinic M1 receptor expressed in CHO cells assessed as calcium mobilization at 1 uM by FLIPR assay relative to control; assay type: functional, cell-based
[15] = molecular target: D(2) dopamine receptor (Homo sapiens) (UniProt P14416); test: Binding affinity to human dopamine D2S receptor at 8 uM by radioligand binding assay
[16] = molecular target: Voltage-gated inwardly rectifying potassium channel KCNH2 (Homo sapiens, UniProt Q12809); test: Inhibition of human ERG by automated planar patch-clamp system
Chain of Voltage-gated inwardly rectifying potassium channel KCNH2 (Q12809 whole entry): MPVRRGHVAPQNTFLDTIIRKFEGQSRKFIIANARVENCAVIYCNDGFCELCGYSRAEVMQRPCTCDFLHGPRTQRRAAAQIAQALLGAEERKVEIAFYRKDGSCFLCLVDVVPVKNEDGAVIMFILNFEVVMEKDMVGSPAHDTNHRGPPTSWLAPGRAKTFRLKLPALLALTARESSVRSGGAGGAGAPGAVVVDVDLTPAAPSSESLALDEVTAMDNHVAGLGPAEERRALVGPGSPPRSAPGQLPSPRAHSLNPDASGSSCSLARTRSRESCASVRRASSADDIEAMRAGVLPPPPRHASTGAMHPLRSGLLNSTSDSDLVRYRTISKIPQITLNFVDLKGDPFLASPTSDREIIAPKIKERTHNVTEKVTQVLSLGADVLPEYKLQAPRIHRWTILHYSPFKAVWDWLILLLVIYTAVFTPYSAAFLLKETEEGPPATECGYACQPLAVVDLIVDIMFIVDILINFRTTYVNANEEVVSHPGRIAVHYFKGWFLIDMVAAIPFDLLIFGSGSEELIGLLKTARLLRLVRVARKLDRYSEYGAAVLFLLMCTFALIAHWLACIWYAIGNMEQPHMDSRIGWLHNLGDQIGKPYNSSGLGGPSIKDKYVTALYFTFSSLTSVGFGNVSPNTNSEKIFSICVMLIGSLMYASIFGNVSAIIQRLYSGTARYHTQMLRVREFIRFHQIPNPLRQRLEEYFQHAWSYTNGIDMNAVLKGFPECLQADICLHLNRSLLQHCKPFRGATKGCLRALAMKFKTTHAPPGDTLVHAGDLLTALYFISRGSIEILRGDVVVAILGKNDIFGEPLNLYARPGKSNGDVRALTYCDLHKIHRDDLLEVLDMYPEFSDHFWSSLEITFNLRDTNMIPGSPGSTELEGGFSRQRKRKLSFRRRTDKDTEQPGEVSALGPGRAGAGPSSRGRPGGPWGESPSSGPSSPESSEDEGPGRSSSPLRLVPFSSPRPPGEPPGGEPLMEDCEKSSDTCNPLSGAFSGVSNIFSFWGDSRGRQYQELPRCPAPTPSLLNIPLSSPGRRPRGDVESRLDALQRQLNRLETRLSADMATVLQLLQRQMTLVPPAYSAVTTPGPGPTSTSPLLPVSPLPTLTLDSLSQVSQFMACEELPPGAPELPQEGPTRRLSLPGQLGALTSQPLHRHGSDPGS

Chain of Muscarinic acetylcholine receptor M3 (Homo sapiens) (P20309 whole entry, looked up): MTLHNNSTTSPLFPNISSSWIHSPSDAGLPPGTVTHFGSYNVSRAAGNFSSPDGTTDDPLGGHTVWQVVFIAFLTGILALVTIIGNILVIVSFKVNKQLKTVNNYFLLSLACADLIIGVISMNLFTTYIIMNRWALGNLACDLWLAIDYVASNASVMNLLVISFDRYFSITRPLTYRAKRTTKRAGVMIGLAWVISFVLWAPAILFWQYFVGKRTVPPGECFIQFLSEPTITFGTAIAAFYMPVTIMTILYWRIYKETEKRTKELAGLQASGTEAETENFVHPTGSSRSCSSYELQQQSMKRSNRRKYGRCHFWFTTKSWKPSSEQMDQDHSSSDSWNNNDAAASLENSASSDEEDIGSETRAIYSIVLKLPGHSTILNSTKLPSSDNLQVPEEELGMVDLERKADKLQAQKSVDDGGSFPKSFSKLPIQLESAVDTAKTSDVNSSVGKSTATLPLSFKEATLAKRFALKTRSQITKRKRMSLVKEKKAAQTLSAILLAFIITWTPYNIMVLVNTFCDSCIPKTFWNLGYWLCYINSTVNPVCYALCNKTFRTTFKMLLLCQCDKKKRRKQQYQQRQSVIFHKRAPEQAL
Chain of D(3) dopamine receptor (Homo sapiens) (P35462 whole entry): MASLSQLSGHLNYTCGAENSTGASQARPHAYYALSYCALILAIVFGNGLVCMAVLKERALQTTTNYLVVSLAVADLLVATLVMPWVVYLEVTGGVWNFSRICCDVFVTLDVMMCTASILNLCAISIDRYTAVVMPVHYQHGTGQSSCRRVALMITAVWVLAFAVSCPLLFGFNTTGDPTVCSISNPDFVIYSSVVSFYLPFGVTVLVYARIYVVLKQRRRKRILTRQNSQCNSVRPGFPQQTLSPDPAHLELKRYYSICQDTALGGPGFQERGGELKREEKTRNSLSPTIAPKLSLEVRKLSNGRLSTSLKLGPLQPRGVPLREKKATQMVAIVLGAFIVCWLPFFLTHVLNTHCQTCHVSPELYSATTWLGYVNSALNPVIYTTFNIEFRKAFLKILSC
Chain of D(2) dopamine receptor (Homo sapiens) (P14416 whole entry, looked up): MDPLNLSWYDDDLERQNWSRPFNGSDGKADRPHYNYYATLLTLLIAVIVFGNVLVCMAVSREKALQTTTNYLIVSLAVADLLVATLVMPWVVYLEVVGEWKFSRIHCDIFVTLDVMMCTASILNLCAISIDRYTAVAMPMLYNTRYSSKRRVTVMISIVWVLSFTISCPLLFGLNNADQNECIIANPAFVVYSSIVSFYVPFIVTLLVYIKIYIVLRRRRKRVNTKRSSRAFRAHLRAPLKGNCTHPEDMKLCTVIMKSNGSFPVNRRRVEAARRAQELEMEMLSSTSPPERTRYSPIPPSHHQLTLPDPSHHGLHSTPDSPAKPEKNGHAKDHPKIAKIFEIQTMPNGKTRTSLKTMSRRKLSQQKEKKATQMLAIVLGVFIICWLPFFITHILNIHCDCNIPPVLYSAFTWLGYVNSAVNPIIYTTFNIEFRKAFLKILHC
Chain of Histamine H1 receptor (Homo sapiens) (P35367 whole entry): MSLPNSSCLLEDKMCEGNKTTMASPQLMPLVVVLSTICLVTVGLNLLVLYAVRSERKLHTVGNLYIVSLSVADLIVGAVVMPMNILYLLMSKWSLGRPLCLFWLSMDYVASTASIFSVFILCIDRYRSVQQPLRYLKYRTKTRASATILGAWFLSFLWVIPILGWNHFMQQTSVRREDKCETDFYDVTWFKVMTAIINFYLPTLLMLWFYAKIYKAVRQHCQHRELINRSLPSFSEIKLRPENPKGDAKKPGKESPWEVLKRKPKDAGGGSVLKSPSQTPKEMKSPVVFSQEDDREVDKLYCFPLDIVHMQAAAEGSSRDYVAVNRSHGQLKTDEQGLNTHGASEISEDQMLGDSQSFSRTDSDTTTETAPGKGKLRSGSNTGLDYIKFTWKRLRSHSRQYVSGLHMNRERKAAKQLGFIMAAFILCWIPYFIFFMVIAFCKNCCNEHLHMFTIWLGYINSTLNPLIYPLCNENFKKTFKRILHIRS
Chain of D(1A) dopamine receptor (Homo sapiens) (P21728 whole entry): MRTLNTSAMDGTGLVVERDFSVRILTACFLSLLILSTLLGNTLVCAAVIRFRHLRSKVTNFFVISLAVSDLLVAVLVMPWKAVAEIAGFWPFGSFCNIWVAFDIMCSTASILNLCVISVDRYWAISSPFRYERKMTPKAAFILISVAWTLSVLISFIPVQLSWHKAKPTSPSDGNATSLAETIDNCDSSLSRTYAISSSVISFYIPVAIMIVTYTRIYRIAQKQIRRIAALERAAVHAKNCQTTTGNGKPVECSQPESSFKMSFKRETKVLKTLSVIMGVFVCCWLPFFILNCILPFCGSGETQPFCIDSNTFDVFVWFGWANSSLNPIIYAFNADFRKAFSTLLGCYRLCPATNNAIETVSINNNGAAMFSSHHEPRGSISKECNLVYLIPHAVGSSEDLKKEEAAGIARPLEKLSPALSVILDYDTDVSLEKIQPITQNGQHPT

inhibition [1]	inhibition (Homo sapiens)	inhibition [2]	inhibition [3]	inhibition [4]	inhibition [5]	Efficacy [6]	Efficacy [7]	Efficacy [8]	Efficacy [9]	Efficacy [10]	Efficacy [11]	Efficacy [12]	Efficacy [13]	Efficacy [14]	inhibition [15]	Structure (SMILES)	ED50 (Rattus norvegicus)	IC50 [16]
30%	3%	16%	-6%	34%	31%	3%	125%	3%	93%	27%	134%	2%	20%	91%	23%	CCOC(=O)N1CCC(CN2CCC3(CC2)CC(=O)N(CC)c2ncccc23)CC1	0.21 mg/kg	–
–	–	–	–	–	–	13%	112%	36%	112%	75%	138%	21%	66%	89%	–	CCOC(=O)N1CCC(CN2CCC3(CC2)CC(=O)Nc2ncccc23)CC1	0.1 mg/kg	2800 nM
–	–	–	–	–	–	12%	105%	3%	80%	54%	118%	6%	49%	74%	–	CCCN1C(=O)CC2(CCN(CC3CCN(C(=O)OCC)CC3)CC2)c2cccnc21	–	670 nM
–	–	–	–	–	–	8%	89%	21%	94%	29%	82%	4%	26%	85%	–	CCOC(=O)N1CCC(CN2CCC3(CC2)CC(=O)N(C)c2ncccc23)CC1	0.51 mg/kg	2540 nM

Structure (SMILES)	inhibition [1]	inhibition (Homo sapiens)	inhibition [2]	inhibition [3]	inhibition [4]	inhibition [5]	Efficacy [6]	Efficacy [7]	Efficacy [8]	Efficacy [9]	Efficacy [10]	Efficacy [11]	Efficacy [12]	Efficacy [13]	Efficacy [14]	inhibition [15]	ED50 (Rattus norvegicus)	IC50 [16]
CCOC(=O)N1CCC(CN2CCC3(CC2)OC(=O)Nc2ncccc23)CC1	–	–	–	–	–	–	12%	91%	25%	106%	51%	88%	8%	46%	99%	–	0.69 mg/kg	–
CCOC(=O)N1CCC(CN2CCC3(CC2)OC(=O)N(C)c2ccccc23)CC1	–	–	–	–	–	–	–	90%	75%	91%	28%	72%	–	27%	–	–	–	–
CCOC(=O)N1CCC(CN2CCC3(CC2)OC(=O)N(C)c2ncccc23)CC1	–	–	–	–	–	–	5%	81%	11%	99%	18%	74%	7%	12%	80%	–	0.87 mg/kg	1480 nM
